Laboratory results as given in patent publication US9340547B2, “Pyrrolotriazinone derivatives as inhibitors P13K” (Almirall, S.A., priority 2011, dated 2016).
Like-named read-outs stand apart in the source and are kept apart here.

Target: T1, PI3Kδ (PI3 Kd) (Homo sapiens, UniProt O00329)
T1 construct: purchased Millipore
Assay: PI3K HTRF enzymatic inhibition assay (cell-free), PI3Kd
Format: biochemical
Description: PI3K α, β, δ and γ Enzymatic Inhibition Assays
Compounds were screened for their ability to inhibit PI3Kα (PI3Kα), PI3Kβ (PI3 Kb), PI3Kδ (PI3 Kd) and PI3Kγ (PI3 Kg) using a cell-free based PI3K HTRF™ assay (Millipore, ref. #33-017) All reagents to perform the reactions were prepared according to the manufacturer protocol. All PI3K enzymes were recombinant and were purchased at Millipore.
These concentrations were final in the assay. • 3) A reservoir plate containing Adenosine TriPhosphate (ATP) diluted in the Millipore kit buffer was prepared for each isoform. […] Incubation was done for 8 minutes (for all four isoforms) then the reaction was stopped by addition of the Stop solution. The Detection solution was added. These solutions were prepared previously according to the kit specifications.

T1 sequence (O00329 whole entry): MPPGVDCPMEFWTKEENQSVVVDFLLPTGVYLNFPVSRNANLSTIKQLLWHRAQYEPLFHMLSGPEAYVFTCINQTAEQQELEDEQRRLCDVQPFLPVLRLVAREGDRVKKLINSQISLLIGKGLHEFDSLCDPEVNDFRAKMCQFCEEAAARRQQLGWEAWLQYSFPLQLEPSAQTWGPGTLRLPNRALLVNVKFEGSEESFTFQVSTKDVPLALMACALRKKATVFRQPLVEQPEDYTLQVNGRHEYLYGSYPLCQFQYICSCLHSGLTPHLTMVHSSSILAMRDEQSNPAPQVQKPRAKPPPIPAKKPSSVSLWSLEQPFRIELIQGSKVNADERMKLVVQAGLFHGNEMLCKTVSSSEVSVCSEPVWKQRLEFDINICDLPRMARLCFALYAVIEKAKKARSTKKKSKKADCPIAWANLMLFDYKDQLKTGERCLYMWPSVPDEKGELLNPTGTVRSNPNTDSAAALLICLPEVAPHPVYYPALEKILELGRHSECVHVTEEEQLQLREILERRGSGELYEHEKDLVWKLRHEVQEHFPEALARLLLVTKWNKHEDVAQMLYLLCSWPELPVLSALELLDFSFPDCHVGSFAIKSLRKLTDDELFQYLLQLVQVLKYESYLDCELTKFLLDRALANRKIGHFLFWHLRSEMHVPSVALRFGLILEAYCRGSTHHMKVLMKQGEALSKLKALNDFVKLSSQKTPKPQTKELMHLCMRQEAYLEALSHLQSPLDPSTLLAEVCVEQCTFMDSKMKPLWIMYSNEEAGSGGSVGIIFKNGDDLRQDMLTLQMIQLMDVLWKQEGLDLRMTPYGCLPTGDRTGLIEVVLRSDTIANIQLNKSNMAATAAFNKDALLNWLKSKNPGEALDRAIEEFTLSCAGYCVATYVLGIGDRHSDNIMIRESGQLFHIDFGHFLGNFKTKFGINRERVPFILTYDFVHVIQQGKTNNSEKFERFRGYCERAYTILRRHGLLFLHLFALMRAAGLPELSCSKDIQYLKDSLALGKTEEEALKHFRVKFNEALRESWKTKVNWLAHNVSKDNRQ
T1 sequence (P27986 whole entry partner): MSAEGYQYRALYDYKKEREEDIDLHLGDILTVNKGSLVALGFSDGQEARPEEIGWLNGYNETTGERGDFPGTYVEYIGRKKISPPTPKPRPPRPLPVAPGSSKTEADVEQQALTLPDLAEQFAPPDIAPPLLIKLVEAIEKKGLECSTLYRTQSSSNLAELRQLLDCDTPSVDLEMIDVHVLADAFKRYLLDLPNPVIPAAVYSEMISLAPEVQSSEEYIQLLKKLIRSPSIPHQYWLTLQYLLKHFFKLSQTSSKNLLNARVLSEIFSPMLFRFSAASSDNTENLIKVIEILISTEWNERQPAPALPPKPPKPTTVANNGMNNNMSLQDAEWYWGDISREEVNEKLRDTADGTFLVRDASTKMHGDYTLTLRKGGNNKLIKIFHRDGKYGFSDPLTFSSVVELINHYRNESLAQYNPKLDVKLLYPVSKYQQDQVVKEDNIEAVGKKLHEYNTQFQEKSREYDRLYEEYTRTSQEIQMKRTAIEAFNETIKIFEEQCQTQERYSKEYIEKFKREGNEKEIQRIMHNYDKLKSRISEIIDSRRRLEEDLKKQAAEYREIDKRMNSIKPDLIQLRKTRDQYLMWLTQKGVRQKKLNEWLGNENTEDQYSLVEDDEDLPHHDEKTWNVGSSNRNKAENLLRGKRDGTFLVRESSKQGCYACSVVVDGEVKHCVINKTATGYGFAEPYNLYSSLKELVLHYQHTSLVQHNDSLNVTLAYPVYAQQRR

Compound | IC50 [nM] | IC50 (recombinant PI3 Kd 0.60 nM, PIP2 2 μM, ATP 20 μM, 8 min incubation) [nM]
CC[C@H](Nc1nc(N)nc2[nH]cnc12)c1nn2cccc2c(=O)n1-c1ccccc1 [Example 17, (S)-2-(1-(2-Amino-9H-purin-6-ylamino)propyl)-3-phenylpyrrolo[1,2-f][1,2,4]triazin-4(3H)-one] | 9 | –
C[C@H](Nc1ccnc2ccnn12)c1nn2cccc2c(=O)n1-c1ccccc1 [Example 54, (S)-3-Phenyl-2-(1-(pyrazolo[1,5-a]pyrimidin-7-ylamino)ethyl)pyrrolo[1,2-f][1,2,4]triazin-4(3H)-one] | 60 | –
C[C@H](Nc1ncnc(N)c1C#N)c1nn2cc(F)cc2c(=O)n1-c1ccccc1 [Example 75, (S)-4-Amino-6-(1-(6-fluoro-4-oxo-3-phenyl-3,4-dihydropyrrolo[1,2-f][1,2,4]triazin-2-yl)ethylamino)pyrimidine-5-carbonitrile] | 17 | –
C[C@H](Nc1ncnc(N)c1C#N)c1nn2cccc2c(=O)n1-c1cn[nH]c1 [Example 124, (S)-4-Amino-6-(1-(4-oxo-3-(1H-pyrazol-4-yl)-3,4-dihydropyrrolo[1,2-f][1,2,4]triazin-2-yl)ethylamino)pyrimidine-5-carbonitrile] | 11 | –
Nc1ncnc2c1ncn2Cc1nn2ccc(Cl)c2c(=O)n1Cc1ccccc1 [Example 29] | 376 | –
CCCNC(=O)c1ccn2nc([C@H](C)Nc3ncnc(N)c3C#N)n(-c3ccccc3)c(=O)c12 [Example 152, (S)-2-(1-(6-Amino-5-cyanopyrimidin-4-ylamino)ethyl)-4-oxo-3-phenyl-N-propyl-3,4-dihydropyrrolo[1,2-f][1,2,4]triazine-5-carboxamide] | 747 | –
C[C@H](Nc1ncnc(N)c1C#N)c1nn2ccc(CN3CCOCC3)c2c(=O)n1-c1ccccc1 [Example 122, (S)-4-Amino-6-(1-(5-(morpholinomethyl)-4-oxo-3-phenyl-3,4-dihydropyrrolo[1,2-f][1,2,4]triazin-2-yl)ethylamino)pyrimidine-5-carbonitrile] | 2930 | –
Cc1ccn2nc([C@H](C)Nc3ncnc4[nH]cnc34)n(-c3ccccc3)c(=O)c12 [Example 68, (S)-2-(1-(9H-Purin-6-ylamino)ethyl)-5-methyl-3-phenyl pyrrolo[1,2-f][1,2,4]triazin-4(3H)-one] | 1 | –
Cc1ccccc1-n1c(CNc2ncnc(N)c2C#N)nn2cccc2c1=O [Example 158, 4-Amino-6-((4-oxo-3-o-tolyl-3,4-dihydropyrrolo[1,2-f][1,2,4]triazin-2-yl)methylamino)pyrimidine-5-carbonitrile] | 43 | –
C[C@H](Nc1ncnc2[nH]cc(F)c12)c1nn2cccc2c(=O)n1-c1ccccc1 [Example 81, (S)-2-(1-(5-Fluoro-7H-pyrrolo[2,3-d]pyrimidin-4-ylamino)ethyl)-3-phenylpyrrolo[1,2-f][1,2,4]triazin-4(3H)-one] | 9 | –
Cc1ccccc1-n1c(CSc2ncnc3[nH]cnc23)nn2ccc(C)c2c1=O [Example 11, 2-((9H-Purin-6-ylthio)methyl)-5-methyl-3-o-tolylpyrrolo[1,2-f][1,2,4]triazin-4(3H)-one] | – | 119
C[C@H](Nc1ncnc2[nH]cnc12)c1nn2cccc2c(=O)n1-c1cc(F)cc(F)c1 [Example 37, (S)-2-(1-(9H-Purin-6-ylamino)ethyl)-3-(3,5-difluorophenyl)pyrrolo[1,2-f][1,2,4]triazin-4(3H)-one] | 15 | –
C[C@H](Nc1nc(N)nc2[nH]cnc12)c1nn2ccnc2c(=O)n1-c1ccccc1 [Example 64, (S)-2-(1-(2-Amino-9H-purin-6-ylamino)ethyl)-3-phenylimidazo[1,2-f][1,2,4]triazin-4(3H)-one] | 69 | –
C[C@H](Nc1ncnc(N)c1C#N)c1nn2ccc(C#N)c2c(=O)n1C1CCCOC1 (single isomer, unassigned) [Example 129] | 38 | –
C[C@H](Nc1ncnc(N)c1C#N)c1nn2ccc(C#N)c2c(=O)n1-c1cccc(C(F)(F)F)c1 [Example 176, (S)-2-(1-(6-Amino-5-cyanopyrimidin-4-ylamino)ethyl)-4-oxo-3-(3-(trifluoromethyl)phenyl)-3,4-dihydropyrrolo[1,2-f][1,2,4]triazine-5-carbonitrile] | 32 | –
C[C@H](Nc1ncnc(N)c1F)c1nn2ccc(C(F)F)c2c(=O)n1-c1cc(F)cc(F)c1 [Example 102, (S)-2-(1-(6-Amino-5-fluoropyrimidin-4-ylamino)ethyl)-5-(difluoromethyl)-3-(3,5-difluorophenyl)pyrrolo[1,2-f][1,2,4]triazin-4(3H)-one] | 42 | –
Nc1nc(N2CCC[C@H]2c2nn3cccc3c(=O)n2-c2ccccc2)c2nc[nH]c2n1 [Example 56, (S)-2-(1-(2-Amino-9H-purin-6-yl)pyrrolidin-2-yl)-3-phenyl pyrrolo[1,2-f][1,2,4]triazin-4(3H)-one] | 15 | –

Compound | IC50 [nM] | IC50 (recombinant PI3 Kd 0.60 nM, PIP2 2 μM, ATP 20 μM, 8 min incubation) [nM]
CC[C@H](Nc1ncnc2[nH]cnc12)c1nn2cccc2c(=O)n1-c1ccccc1 [Example 15, (S)-2-(1-(9H-Purin-6-ylamino)propyl)-3-phenylpyrrolo[1,2-f][1,2,4]triazin-4(3H)-one] | 18 | –
N#Cc1c(N)ncnc1N[C@@H](CCO)c1nn2cccc2c(=O)[nH]1 [Example 165, (S)-4-Amino-6-(3-hydroxy-1-(4-oxo-3,4-dihydropyrrolo[1,2-f][1,2,4]triazin-2-yl)propylamino)pyrimidine-5-carbonitrile] | 670 | –
Cc1ccccc1-n1c(Cn2cnc3c(N)ncnc32)nn2ccc(Cl)c2c1=O [Example 1, 2-((6-Amino-9H-purin-9-yl)methyl)-5-chloro-3-o-tolylpyrrolo[1,2-f][1,2,4]triazin-4(3H)-one] | 120 | –
N#Cc1c(N)ncnc1N1CC(F)(F)C[C@H]1c1nn2cccc2c(=O)n1-c1ccccc1 [Example 73, (S)-4-Amino-6-(4,4-difluoro-2-(4-oxo-3-phenyl-3,4-dihydropyrrolo[1,2-f][1,2,4]triazin-2-yl)pyrrolidin-1-yl)pyrimidine-5-carbonitrile] | 31 | –
C[C@H](Nc1ncnc(N)c1C#N)c1nn2ccc(C(F)(F)F)c2c(=O)n1C1CCCOC1 (single isomer, unassigned) [Example 133] | 11 | –
C[C@H](Nc1ncnc(N)c1C#N)c1nn2ccc(Br)c2c(=O)n1-c1ccccc1 [Example 144, (S)-4-Amino-6-(1-(5-bromo-4-oxo-3-phenyl-3,4-dihydropyrrolo[1,2-f][1,2,4]triazin-2-yl)ethylamino)pyrimidine-5-carbonitrile] | 1 | –
Cc1cc(-n2c([C@H](C)Nc3ncnc(N)c3C#N)nn3cccc3c2=O)n[nH]1 [Example 127, (S)-4-Amino-6-(1-(3-(5-methyl-1H-pyrazol-3-yl)-4-oxo-3,4-dihydropyrrolo[1,2-f][1,2,4]triazin-2-yl)ethylamino)pyrimidine-5-carbonitrile] | 89 | –
C[C@H](Nc1ncnc(N)c1C#N)c1nn2cccc2c(=O)n1C1CCOCC1 [Example 136, (S)-4-Amino-6-(1-(4-oxo-3-(tetrahydro-2H-pyran-4-yl)-3,4-dihydropyrrolo[1,2-f][1,2,4]triazin-2-yl)ethylamino)pyrimidine-5-carbonitrile] | 24 | –
C[C@H](Nc1ncnc2[nH]cnc12)c1nn2cccc2c(=O)n1-c1ccccc1 [Example 20, (S)-2-(1-(9H-Purin-6-ylamino)ethyl)-3-phenylpyrrolo[1,2-f][1,2,4]triazin-4(3H)-one] | 11 | –
Cc1ccc2c(=O)n(-c3ccccc3)c([C@H](C)Nc3ncnc(N)c3C#N)nn12 [Example 71, (S)-4-Amino-6-(1-(7-methyl-4-oxo-3-phenyl-3,4-dihydropyrrolo[1,2-f][1,2,4]triazin-2-yl)ethylamino)pyrimidine-5-carbonitrile] | 9 | –
C[C@H](Nc1ncnc2[nH]cnc12)c1nn2ccc(C(F)(F)F)c2c(=O)n1-c1cc(F)cc(F)c1 [Example 90, (S)-2-(1-(9H-Purin-6-ylamino)ethyl)-3-(3,5-difluorophenyl)-5-(trifluoromethyl)pyrrolo[1,2-f][1,2,4]triazin-4(3H)-one] | 7 | –
C[C@H](Nc1nc(N)nc2[nH]cnc12)c1nn2cccc2c(=O)n1-c1ccccc1 [Example 21, (S)-2-(1-(2-Amino-9H-purin-6-ylamino)ethyl)-3-phenylpyrrolo[1,2-f][1,2,4]triazin-4(3H)-one] | 5 | –
CCCOC(=O)c1ccn2nc(C(C)Nc3ncnc(N)c3C#N)n(-c3ccccc3)c(=O)c12 [Example 164, (S)-Propyl 2-(1-(6-amino-5-cyanopyrimidin-4-ylamino)ethyl)-4-oxo-3-phenyl-3,4-dihydropyrrolo[1,2-f][1,2,4]triazine-5-carboxylate] | 67 | –
C[C@H](Nc1ncnc2[nH]cnc12)c1nn2ccc(C#N)c2c(=O)n1-c1ccccc1 [Example 61, (S)-2-(1-(9H-Purin-6-ylamino)ethyl)-4-oxo-3-phenyl-3,4-dihydropyrrolo[1,2-f][1,2,4]triazine-5-carbonitrile] | 6 | –
C[C@H](Nc1ncnc(N)c1C#N)c1nn2ccc(CCO)c2c(=O)n1-c1ccccc1 [Example 159, (S)-4-Amino-6-(1-(5-(2-hydroxyethyl)-4-oxo-3-phenyl-3,4-dihydropyrrolo[1,2-f][1,2,4]triazin-2-yl)ethylamino)pyrimidine-5-carbonitrile] | 35 | –
Cc1ccccc1-n1c(Cn2cnc3c(N)ncnc32)nn2ccnc2c1=O [Example 31, 2-((6-amino-9H-purin-9-yl)methyl)-3-o-tolylimidazo[1,2-f][1,2,4]triazin-4(3H)-one] | 6570 | –
Cc1ccccc1-n1c(Cn2cnc3c(N)ncnc32)nn2ccc(C(F)(F)F)c2c1=O [Example 25, 2-((6-Amino-9H-purin-9-yl)methyl)-3-o-tolyl-5-(trifluoromethyl)pyrrolo[1,2-f][1,2,4]triazin-4(3H)-one] | 347 | –
